Measurements from publication PMC7618719, “Generation of T cells with reduced off-target cross-reactivities by engineering co-signalling receptors” (Nature Biomedical Engineering, 2026).

Test system: Lck
Assay: Lck chemical inhibition assay, CD69 on A-770041-treated c259 TCR-T cells
Format: cell-based, human
Settings: c259 TCR-T cells treated 1 h with A-770041, U87 with NY-ESO-1 peptides, 4 h, CD69 and TNFα
Method: U87 cells (50,000) in 100 μl of DMEM were seeded per well in a 96-well flat-bottom plate and incubated overnight. T cells were treated with the appropriate concentration of A-770041 for 1 h. The DMEM media were discarded and 50,000 A-770041-treated T cells were added to each well in 200 μl of RPMI media. Cells were incubated for 4 h at 37 ^∘C and 5% CO2.
Cells were stained for 20 min at 4 ^∘C, washed with PBS and analysed using a BD X-20 or a Cytoflex LX flow cytometer (Beckman Couter). Data were analysed using FlowJo v.10, RRID:SCR008520 (BD Biosciences) and GraphPad Prism, RRID:SCR002798 (GraphPad Software).

In the case of `COc1cc(-c2nn([C@H]3CC[C@H](N4CCN(C(C)=O)CC4)CC3)c3ncnc(N)c23)ccc1NC(=O)c1cc2ccccc2n1C` [A-770041], the “effect of Lck inhibition on T cell ligand discrimination” value is reported as “increases T cell ligand discrimination”.
